Laboratory results published in paper PMC6897945, “CytA, a reductase in the cytorhodin biosynthesis pathway, inactivates anthracycline drugs in Streptomyces” (Communications Biology, 2019).

Experiments:
MDA-MB-468 cells = details: read-out: IC50 against MDA-MB-468 cells; cited from earlier work
CytA = assay: Enzyme kinetics of CytA (formation of deglycosylation products, anaerobic); format: biochemical, Streptomyces sp. SCSIO 1666; details: for fold more efficient CytA processing than for 22–26: relative to clinical anthracyclines 22–26; for Km / kcat: substrate of CytA, 0.5 μM CytA, 20 μM NADH, anaerobic
Description: Enzymatic reactions were carried out under anaerobic conditions in an anaerobic workstation (Don Whitley Scientific A45) containing a gas phase of N2/H2/CO2 (80:10: 10%, by vol.). ^1H, ^13C, and 2D (COSY, HMQC, HMBC and NOESY) NMR spectra were recorded at 25 °C with an Avance 700 MHz spectrometer instruments (Bruker). High-resolution mass spectra were obtained with a Maxis quadrupole-time-of-flight mass spectrometer (Bruker).
To validate the in vitro biochemical activities of CytA, we overexpressed and purified this enzyme as a soluble N-terminally His6-tagged protein from E. coli (Fig. 2a). Tris-Cl buffer was made O2 free by boiling, followed by cooling under N2 flow; NADH stock solution (dissolved in Tris-Cl), substrate stock solution (dissolved in DMSO), and enzyme solution (dissolved in Tris-Cl supplemented with 10% glycerin) were subjected to O2 eliminating process in the anaerobic workstations for at least two cycles (40 min for one cycle). CytA enzymatic activity was tested in 50 μL volume containing 50 mM Tris-Cl (pH 8.0), 25 μM substrate, 0.5 μM CytA, and 20 μM NADH, at 37 °C for 30 min. The reaction was quenched with the addition to 2 volumes MeOH. After centrifugation to remove protein, supernatants were analyzed with Agilent HPLC equipment using a Phenomenex Prodigy ODS column S5 (150 × 4.60 mm, 5 μ) and UV detection at 254 and 500 nm. Samples were eluted with a gradient elution of phase A containing 0.1% TFA in ddH2O and phase B containing 100% acetonitrile, at a flow rate of 1 mL/min.
Kinetic analyses of CytA with putative substrates 6–10, daunorubicin, doxorubicin, idarubicin, epirubicin and pirarubicin, involved a reaction volume of 20 μL consisting of 50 mM Tris-Cl (pH 8.0), 0.5 μM CytA, 20 μM NADH, […]
All assays were performed in triplicate and Km and Vmax values were calculated on the basis of curve fitting to the Michaelis-Menten equation: v = Vmax *[S]/(Km + [S]) (Supplementary Fig. 7).
For kinetics of CytA, Origin 9.0 (OriginLab Co.) was used to analyze on the basis of curve fitting to the Michaelis-Menten equation. Experiments were performed in triplicate independently. For antibacterial activity, experiments were performed in triplicate using 96-well plates.

[1] = test system: Streptomyces sp. SCSIO 1666 WT; assay: Growth inhibition zone assay; format: cell-based; details: WT producer, paper discs impregnated with compound, 1 μg
Source text: (§1) We also noted that the ∆cytA mutant strain accumulated small amounts (80~100-fold lower than WT producer) of the immediate biosynthetic precursors of cosmomycins A (3) and B (4). The in vitro antimicrobial activities of compounds 1–13 against a panel of gram-positive bacteria (Table 2) provided some insight into the possible physiological significance of CytA-catalyzed reductions. Furthermore, we had observed that the ΔcytA mutant strain is clearly impaired relative to the WT strain upon addition of 6 or 7 as potential substrates. To evaluate this effect, we probed the sensitivity of Streptomyces sp. SCSIO 1666 to 6 and 7 in an inhibition zone assay (Fig. 3). A clear inhibition zone (16 mm) using the ΔcytA mutant plate was observed when supplemented with 1 μg of 6 or 7. […] That CytA production endows cosmomycin resistance provides strong evidence that the cytA gene directly confers Streptomyces. sp. SCSIO 1666 with the ability to protect itself from the effects by self-resistance to cosmomycins C and D.
(§2) Fig. 3 Sensitivity of Streptomyces sp. SCSIO 1666 toward cosmomycin C (6) and cosmomycin D (7) (1 μg) as determined by growth inhibition zone assays. […] TEXT PRINTED IN THE PICTURE: 6: ΔcytA mutant strain: 16 mm DOUBTS OF THE COPYIST ABOUT THIS PICTURE: 6, ΔcytA mutant strain: the small yellow print reads 16 mm, but it could be 15 or 18 mm / 6: the yellow double arrow marked 16 mm spans the zone around disc 6. The picture prints no measure name, so it may be the inhibition zone diameter or only a scale mark

[2] = test system: Streptomyces sp. SCSIO 1666 ΔcytA mutant strain; assay: Growth inhibition zone assay; format: cell-based; details: Streptomyces, read-out: inhibition zone
Source text: as §1, §2

Row | Structure (SMILES) | IC50 (MDA-MB-468 cells) | fold more efficient CytA processing than for 22–26 (CytA) | Km (CytA) | kcat (CytA) | growth inhibition near paper discs [1] | zone of inhibition at 1 µg/disc [2]
1 | CC[C@@]1(O)C[C@H](O[C@H]2C[C@H](N(C)C)[C@@H](O[C@H]3C[C@H](O)[C@@H](O[C@H]4CC[C@H](O)[C@H](C)O4)[C@H](C)O3)[C@H](C)O2)c2c(O)c3c(c(O)c2[C@H]1O[C@H]1C[C@H](N(C)C)[C@@H](O[C@H]2CC[C@H](O[C@H]4CC[C@H](O)[C@H](C)O4)[C@H](C)O2)[C@H](C)O1)C(=O)c1cccc(O)c1C3=O [Compound 6, cosmomycin C] | 0.21 µM | 2–3 fold | 14.3 µM | 0.0118 s⁻¹ | little to no growth inhibition | 16 mm
2 | CC[C@@]1(O)C[C@H](O[C@H]2C[C@H](N(C)C)[C@H](O[C@H]3C[C@H](O)[C@H](O[C@H]4CC[C@H](O)[C@H](C)O4)[C@H](C)O3)[C@H](C)O2)c2c(O)c3c(c(O)c2[C@H]1O[C@H]1C[C@H](N(C)C)[C@H](O[C@H]2C[C@H](O)[C@H](O[C@H]4CC[C@H](O)[C@H](C)O4)[C@H](C)O2)[C@H](C)O1)C(=O)c1cccc(O)c1C3=O [Compound 7, cosmomycin D] |  | 2–3 fold | 17.9 µM | 0.0132 s⁻¹ | little to no growth inhibition | 16 mm
